Measurements reported in ChEMBL document CHEMBL1201862, “PubChem BioAssay data set” (2004).
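Exposure lasted 48 hours, with cells grown in 96-well plates and compounds tested at five concentrations. GI50 = concentration required for 50% inhibition of growth.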 Calls of active or inactive are those of the source. Rule as the data show it: active = GI50 up to about 1.1 µM and inactive = higher.

Tests used:
Assay in all cases: NCI anticancer screen, dose series, 48 h
UO-31 = system: UO-31
MOLT-4 = system: MOLT-4
HOP-62 = system: HOP-62
786-0 = system: 786-0
TK-10 = system: TK-10
A549 = system: A549
OVCAR-3 = system: OVCAR-3
IGROV-1 = system: IGROV-1
SK-MEL-2 = system: SK-MEL-2
SW-620 = system: SW-620
KM12 = system: KM12
T47D = system: T47D
OVCAR-5 = system: OVCAR-5
UACC-257 = system: UACC-257
HCT-116 = system: HCT-116
SNB-19 = system: SNB-19
MDA-MB-231 = system: MDA-MB-231
NCI/ADR-RES = system: NCI/ADR-RES
NCI-H226 = system: NCI-H226
RXF 393 = system: RXF 393
HCC 2998 = system: HCC 2998
SK-MEL-28 = system: SK-MEL-28
BT-549 = system: BT-549
Hs-578T = system: Hs-578T
MCF7 = system: MCF7
MDA-N = system: MDA-N
COLO 205 = system: COLO 205
SN12C = system: SN12C
HT-29 = system: HT-29
U-251 = system: U-251
SF-539 = system: SF-539
MDA-MB-435 = system: MDA-MB-435
M14 = system: M14
OVCAR-8 = system: OVCAR-8
SK-MEL-5 = system: SK-MEL-5
EKVX = system: EKVX
A498 = system: A498
DU-145 = system: DU-145
NCI-H23 = system: NCI-H23
UACC-62 = system: UACC-62
NCI-H460 = system: NCI-H460
SK-OV-3 = system: SK-OV-3
SF-268 = system: SF-268
OVCAR-4 = system: OVCAR-4
RPMI-8226 = system: RPMI-8226
CCRF-CEM = system: CCRF-CEM
SF-295 = system: SF-295
ACHN = system: ACHN
SNB-75 = system: SNB-75
NCI-H522 = system: NCI-H522
SR = system: SR
K562 = system: K562
HCT-15 = system: HCT-15
Malme-3M = system: Malme-3M
LOX IMVI = system: LOX IMVI
HOP-92 = system: HOP-92
CAKI-1 = system: CAKI-1
PC-3 = system: PC-3

CC(C)(C)[Si](C)(C)OCCC1CC2(S(=O)(=O)C3=CC=C=C=C3)ON1CC2S(=O)(=O)c1ccccc1 (centres undefined)
GI50 (UO-31): > 10 µM (inactive)
GI50 (MOLT-4): > 10 µM (inactive)
GI50 (HOP-62): > 10 µM (inactive)
GI50 (786-0): > 10 µM (inactive)
GI50 (TK-10): > 10 µM (inactive)
GI50 (A549): > 10 µM (inactive)
GI50 (OVCAR-3): > 10 µM (inactive)
GI50 (IGROV-1): > 10 µM (inactive)
GI50 (SK-MEL-2): > 10 µM (inactive)
GI50 (SW-620): > 10 µM (inactive)
GI50 (KM12): > 10 µM (inactive)
GI50 (T47D): > 10 µM (inactive)
GI50 (OVCAR-5): > 10 µM (inactive)
GI50 (UACC-257): > 10 µM (inactive)
GI50 (HCT-116): > 10 µM (inactive)
GI50 (SNB-19): > 10 µM (inactive)
GI50 (MDA-MB-231): > 10 µM (inactive)
GI50 (NCI/ADR-RES): > 10 µM (inactive)
GI50 (NCI-H226): > 10 µM (inactive)
GI50 (RXF 393): > 10 µM (inactive)
GI50 (HCC 2998): > 10 µM (inactive)
GI50 (SK-MEL-28): > 10 µM (inactive)
GI50 (BT-549): > 10 µM (inactive)
GI50 (Hs-578T): > 10 µM (inactive)
GI50 (MCF7): > 10 µM (inactive)
GI50 (MDA-N): > 10 µM (inactive)
GI50 (COLO 205): > 10 µM (inactive)
GI50 (SN12C): > 10 µM (inactive)
GI50 (HT-29): > 10 µM (inactive)
GI50 (U-251): > 100 µM (inactive)
GI50 (SF-539): > 10 µM (inactive)
GI50 (MDA-MB-435): > 10 µM (inactive)
GI50 (M14): > 10 µM (inactive)
GI50 (OVCAR-8): > 10 µM (inactive)
GI50 (SK-MEL-5): > 10 µM (inactive)
GI50 (EKVX): > 10 µM (inactive)
GI50 (A498): > 10 µM (inactive)
GI50 (DU-145): > 10 µM (inactive)
GI50 (NCI-H23): > 10 µM (inactive)
GI50 (UACC-62): > 10 µM (inactive)
GI50 (NCI-H460): > 10 µM (inactive)
GI50 (SK-OV-3): > 100 µM (inactive)
GI50 (SF-268): > 10 µM (inactive)
GI50 (OVCAR-4): > 10 µM (inactive)
GI50 (RPMI-8226): > 10 µM (inactive)
GI50 (CCRF-CEM): 2.56 µM (inactive)
GI50 (SF-295): > 10 µM (inactive)
GI50 (ACHN): > 10 µM (inactive)
GI50 (SNB-75): > 10 µM (inactive)

NS(=O)(=O)c1nc(S(=O)(=O)O)c2[nH]cnc2n1
GI50 (UO-31): > 100 µM (inactive)
GI50 (MOLT-4): 29 µM (inactive)
GI50 (HOP-62): > 100 µM (inactive)
GI50 (NCI-H522): > 100 µM (inactive)
GI50 (786-0): > 100 µM (inactive)
GI50 (TK-10): > 100 µM (inactive)
GI50 (A549): > 100 µM (inactive)
GI50 (SR): > 100 µM (inactive)
GI50 (OVCAR-3): > 100 µM (inactive)
GI50 (IGROV-1): > 100 µM (inactive)
GI50 (SK-MEL-2): > 100 µM (inactive)
GI50 (K562): > 100 µM (inactive)
GI50 (SW-620): > 100 µM (inactive)
GI50 (KM12): > 100 µM (inactive)
GI50 (T47D): > 100 µM (inactive)
GI50 (OVCAR-5): > 100 µM (inactive)
GI50 (UACC-257): > 100 µM (inactive)
GI50 (HCT-116): > 100 µM (inactive)
GI50 (SNB-19): > 100 µM (inactive)
GI50 (MDA-MB-231): > 100 µM (inactive)
GI50 (HCT-15): > 100 µM
GI50 (NCI/ADR-RES): > 100 µM (inactive)
GI50 (NCI-H226): > 100 µM (inactive)
GI50 (RXF 393): > 100 µM (inactive)
GI50 (SK-MEL-28): > 100 µM (inactive)
GI50 (BT-549): > 100 µM (inactive)
GI50 (Hs-578T): > 100 µM (inactive)
GI50 (MCF7): > 100 µM (inactive)
GI50 (MDA-N): > 100 µM (inactive)
GI50 (COLO 205): > 100 µM (inactive)
GI50 (SN12C): > 100 µM (inactive)
GI50 (Malme-3M): > 100 µM (inactive)
GI50 (HT-29): > 100 µM (inactive)
GI50 (LOX IMVI): > 100 µM (inactive)
GI50 (U-251): > 100 µM (inactive)
GI50 (SF-539): > 100 µM (inactive)
GI50 (MDA-MB-435): > 100 µM (inactive)
GI50 (HOP-92): > 100 µM (inactive)
GI50 (M14): > 100 µM (inactive)
GI50 (OVCAR-8): > 100 µM (inactive)
GI50 (SK-MEL-5): > 100 µM (inactive)
GI50 (EKVX): > 100 µM (inactive)
GI50 (A498): > 100 µM (inactive)
GI50 (NCI-H23): > 100 µM (inactive)
GI50 (UACC-62): > 100 µM (inactive)
GI50 (NCI-H460): > 100 µM (inactive)
GI50 (SK-OV-3): > 100 µM (inactive)
GI50 (SF-268): > 100 µM (inactive)
GI50 (CAKI-1): > 100 µM (inactive)
GI50 (OVCAR-4): > 100 µM (inactive)
GI50 (RPMI-8226): > 100 µM (inactive)
GI50 (SF-295): > 100 µM (inactive)
GI50 (ACHN): > 100 µM (inactive)
GI50 (PC-3): > 100 µM (inactive)
GI50 (SNB-75): > 100 µM (inactive)
